From US20130023553A1, “PEGYLATED OPIOIDS WITH LOW POTENTIAL FOR ABUSE AND SIDE EFFECTS” (Nektar Therapeutics, priority 2010, published 2013)

Experiments:
squirrel monkeys = assay: Monkey self-administration model of addictive potential
[1] = Pharmacokinetics following intravenous (IV) dosing; assay type: in vivo, Sprague-Dawley rats; settings: male, Sprague-Dawley, rat, plasma, hydroxycodone series, 1 mg/kg IV, Mean ± SD
Excerpt: (§1) There were 3 rats/group. All animals were food fasted overnight. […] The predose sample was collected from the JVC.
(§2) Following the last collection point, the animals were euthanized.

[2] = Pharmacokinetics following oral (PO) dosing; assay type: in vivo, Sprague-Dawley rats; settings: male, Sprague-Dawley, rat, plasma
Excerpt: as §1, §2

human mu opioid receptor = target: T1, human mu opioid receptor (Homo sapiens, UniProt P35372); assay: cell-based
T1 construct: expressed in transfected cells; host or cells: CHO cells
T1 sequence (P35372 whole entry): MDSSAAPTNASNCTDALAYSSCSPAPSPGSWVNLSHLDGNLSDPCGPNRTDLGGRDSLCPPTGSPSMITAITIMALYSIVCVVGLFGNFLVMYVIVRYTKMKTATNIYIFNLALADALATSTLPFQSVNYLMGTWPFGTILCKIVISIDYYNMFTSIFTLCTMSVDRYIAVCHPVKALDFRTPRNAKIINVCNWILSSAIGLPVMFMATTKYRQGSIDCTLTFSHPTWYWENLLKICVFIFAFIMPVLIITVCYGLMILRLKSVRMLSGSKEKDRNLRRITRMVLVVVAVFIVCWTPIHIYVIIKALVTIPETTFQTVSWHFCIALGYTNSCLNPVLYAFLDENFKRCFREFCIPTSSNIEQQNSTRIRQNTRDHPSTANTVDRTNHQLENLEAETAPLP

Male CD-1 mice = assay: Assessment of CNS side effects in mice (Straub tail, muscle rigidity, pinna reflex)
Excerpt: The objective of this study was to provide an approximation of the side effect profile of various oligomeric conjugates for comparison to the parent compounds by measuring various gross behavioral and physiological signs following administration of compound.
Additional evaluations included muscle rigidity and pinna reflex.
Male CD-1 mice from Charles River Laboratories, Raleigh, N.C., weighing from 16-18 grams were maintained on a regular light/dark cycle (lights on 0600-1800) with ad libitum food and water for 1 week before commencement of testing. N=2 per treatment condition, i.e., separate mice for each dose of each test article, injection was performed via a 25-gauge ⅝-inch needle on a 1-mL tuberculin syringe for the s.c. route and a 22-gauge stainless steel mouse feeding tube for the p.o. route (Becton, Dickinson & Co., Franklin Lakes, N.J.). Each treatment condition was divided about evenly between two observers. […] Test article was administered (s.c. or p.o., and the mouse was placed immediately in the observation chamber). One-half, 1, 2, and 3 hours later, the animal was observed undisturbed for gross signs such as locomotor ataxia, tremor, hyperactivity, hypoactivity, convulsions, hindlimb splay, and Straub tail, and then removed and assessed for muscle tone (normal, rigid, flaccid), pinna reflex (presence or absence), righting reflex (intact or lost), and placing (whether or not the forepaws are extended when the mouse is placed near a surface).
Each of the tables show the number of animals responding at each dose, where N=2. […] A bolded value indicates the lowest dose at which a response was detected.

mice = assay: Oral dose giving maximal analgesia; assay type: in vivo
male (CD1) mice = assay: Respiratory depression, whole body plethysmography with CO2 challenge; settings: equianalgesic doses (100 mg/kg vs oxycodone 30 mg/kg, gavage)
Experimental: The animals were housed in SPF conditions. The animal housing facilities were maintained at 72°+/−2° F. with a light cycle of 12:12 hours (light:dark). Autoclaved rodent chow and water are provided ad libitum.
Approximate measurements of minute ventilation were carried out using Buxco unrestrained whole body plethysmographs (WBP). Digital computer aided analysis of the analog signal was used to report measurements of tidal volume, frequency of breathing, minute ventilation, inspiratory and expiratory times and flows as well as other derived measurements.
To more clearly delineate the effect of these test articles on respiratory depression, a hypercapnic ventilatory stimulus (CO2) was added to the animals' breathing air supply to stimulate ventilation.
Mice received the drug by gavage and then were placed in the WBP. […] The mouse remained in that atmosphere for 10 minutes, after which time the chamber was flushed with zero grade air for another 20 min to allow ventilation to return to baseline. The mouse was challenged again with 8% CO2 for 10 minutes. […] The last 2 minutes of each of the two conditions (Air or 8% CO2) was recorded and analyzed for the following respiratory parameters: minute ventilation, respiratory frequency, tidal volume, and time of inspiration/expiration for animals in each dose group.

[3] = hydroxycodone series, 5.0 mg/kg oral, Mean ± SD

## COCCOCCOCCOCCOCCOCCOC1CCC2(O)C3Cc4ccc(OC)c5c4C2(CCN3C)C1O5 (stereo not drawn) [α-6-mPEG6-O-hydroxycodone, α-6-mPEG6-O-oxycodone]
Squirrel monkeys; 0.03 mg/kg/injection
  injection lever responses (% ILR): only food lever responses
Squirrel monkeys; 1 mg/kg/injection
  injection lever responses (% ILR): 39%
  subjects showing addictive behavior: 25%
Squirrel monkeys; 1 mg/kg/injection, listed as α-mPEG-6-O-hydroxycodone
  injection lever responses (% ILR): 38±24%
Squirrel monkeys; 3 mg/kg/injection
  subjects showing addictive behavior: 50%
[1]
  AUC: 0.21 µg·h/mL
  AUC(0-inf): 0.218 µg·h/mL
  MRT last: 0.795 h
  clearance: 4.67 ± 0.864 L/h/kg
[1]; read-out: Cmax
  Cmax: 0.445 ± 0.0836 µg/mL
[1]; read-out: T1/2(z)
  half-life: 1.04 ± 0.0862 h
[1]; read-out: Vss
  Vd: 4.68 ± 0.938 L/kg
[2]; po, 5 mg/kg
  bioavailability: 55.3%
[2]; [3]
  AUC: 0.585 µg·h/mL
  MRT last: 2.57 h
[2]; hydroxycodone series, 5.0 mg/kg oral, Mean ± SD, * n = 2
  AUC(0-inf): 0.603 µg·h/mL
[2]; hydroxycodone series, 5.0 mg/kg oral, Mean ± SD, * n = 2, read-out: T1/2(z)
  half-life: 1.42 ± 0.131 h
[2]; hydroxycodone series, 5.0 mg/kg oral, Mean ± SD, read-out: Cmax
  Cmax: 0.171 ± 0.0766 µg/mL
[2]; hydroxycodone series, 5.0 mg/kg oral, median value, read-out: Tmax (converted)
  Tmax: 2 h
Human mu opioid receptor; maximal response at the highest tested concentration, read-out: % max effect, mu opioid receptor
  Emax: 102%
Human mu opioid receptor; read-out: EC50, mu opioid receptor
  EC50: 12.5 µM
Male CD-1 mice; PO, 1/2 responding
  Loss Pinna, fold difference relative to parent compound: >>
  Muscle Rigidity, fold difference relative to parent compound: >100 fold
  Straub Tail, fold difference relative to parent compound: 100 fold
Male CD-1 mice; PO, 2/2 responding
  Loss Pinna, fold difference relative to parent compound: >>
  Muscle Rigidity, fold difference relative to parent compound: >30 fold
  Straub Tail, fold difference relative to parent compound: >100 fold
Male CD-1 mice; SC, 1/2 responding
  Loss Pinna, fold difference relative to parent compound: >30 fold
  Muscle Rigidity, fold difference relative to parent compound: 100 fold
  Straub Tail, fold difference relative to parent compound: 100 fold
Male CD-1 mice; SC, 2/2 responding
  Loss Pinna, fold difference relative to parent compound: 33 fold
  Muscle Rigidity, fold difference relative to parent compound: 100 fold
  Straub Tail, fold difference (reduction in CNS activity) relative to parent compound: 100 fold
Male CD-1 mice; male, CD-1, mouse, in vivo, oral
  decrease in CNS activity relative to parent opioid: 10-100 fold
Male CD-1 mice; oral doses up to 100 mg/kg
  mice showing the straub tail response: none
Male CD-1 mice; oral, 1 mg/kg
  Loss Pinna, number of animals responding (N=2): 0
  Muscle Rigidity, number of animals responding (N=2): 0
  Straub Tail Effect, number of animals responding (N=2): 0
Male CD-1 mice; oral, 3 mg/kg
  Loss Pinna, number of animals responding (N=2): 0
  Muscle Rigidity, number of animals responding (N=2): 0
  Straub Tail Effect, number of animals responding (N=2): 0
Male CD-1 mice; oral, 10 mg/kg
  Loss Pinna, number of animals responding (N=2): 0
  Muscle Rigidity, number of animals responding (N=2): 0
  Straub Tail Effect, number of animals responding (N=2): 0
Male CD-1 mice; oral, 30 mg/kg
  Loss Pinna, number of animals responding (N=2): 0
  Muscle Rigidity, number of animals responding (N=2): 0
  Straub Tail Effect, number of animals responding (N=2): 0
Male CD-1 mice; oral, 100 mg/kg
  Loss Pinna, number of animals responding (N=2): 0
  Muscle Rigidity, number of animals responding (N=2): 1
  Straub Tail Effect, number of animals responding (N=2): 0
Male CD-1 mice; oral, 300 mg/kg
  Loss Pinna, number of animals responding (N=2): 0
  Muscle Rigidity, number of animals responding (N=2): 1
  Straub Tail Effect, number of animals responding (N=2): 1
Male CD-1 mice; oral, highest dose tested
  lowest dose causing a detectable response in the straub test: 300 mg/kg
mice
  oral dose at which maximal analgesia was obtained: 100 mg/kg
Male (CD1) mice; listed as PEG-6-O-hydroxycodone
  respiratory depression compared to oxycodone: produces less respiratory depression than oxycodone
Male (CD1) mice; listed as mPEG6-O-hydroxycodone
  respiratory depression compared to oxycodone: less respiratory depression
